Laboratory results published in ChEMBL document CHEMBL1126158, “Conformational analyses and molecular-shape comparisons of a series of indanone-benzylpiperidine inhibitors of acetylcholinesterase” (J Med Chem, 1992).

Biological target: Acetylcholinesterase (Homo sapiens, UniProt P22303)
Assay: Inhibition of acetylcholinesterase activity

Acetylcholinesterase, sequence (P22303 whole entry): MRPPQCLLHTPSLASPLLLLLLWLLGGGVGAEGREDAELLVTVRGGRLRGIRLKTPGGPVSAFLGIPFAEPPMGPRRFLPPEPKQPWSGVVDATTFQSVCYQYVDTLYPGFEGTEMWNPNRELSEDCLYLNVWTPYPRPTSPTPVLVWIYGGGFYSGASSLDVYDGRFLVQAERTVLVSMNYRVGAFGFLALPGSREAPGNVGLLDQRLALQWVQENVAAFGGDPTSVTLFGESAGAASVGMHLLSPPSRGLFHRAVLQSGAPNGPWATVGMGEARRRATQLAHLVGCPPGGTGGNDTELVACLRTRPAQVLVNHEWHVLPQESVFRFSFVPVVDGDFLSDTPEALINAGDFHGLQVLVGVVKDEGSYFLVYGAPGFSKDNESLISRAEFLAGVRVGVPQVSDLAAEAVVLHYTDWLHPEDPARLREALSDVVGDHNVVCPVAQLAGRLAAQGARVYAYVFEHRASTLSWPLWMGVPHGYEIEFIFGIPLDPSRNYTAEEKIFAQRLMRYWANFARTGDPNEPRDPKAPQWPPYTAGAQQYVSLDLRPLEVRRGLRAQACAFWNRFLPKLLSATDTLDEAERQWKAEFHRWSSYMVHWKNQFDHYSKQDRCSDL

`CN1CCC(C[C@@H]2Cc3ccccc3C2=O)CC1` and `CN1CCC(C[C@H]2Cc3ccccc3C2=O)CC1` are within 1.5-fold of each other in IC50: 5.3 nM for the first, 7.7 nM for the second.

First: CC1CCN(Cc2cccc3ccccc23)CC1
Second: CC1CCN(Cc2ccc3ccccc3c2)CC1
The IC50 of the first is 13-fold lower: 220 nM for the first, 2900 nM for the second.

Compared with `CN1CCC(/C=C/C=C2\Cc3ccccc3C2=O)CC1`, `CN1CCC(/C=C2\Cc3ccccc3C2=O)CC1` is 2.8-fold higher in IC50: 3 nM for the first, 8.4 nM for the second. The first is the more potent here.

First: CN1CCC(CC/C=C2\Cc3ccccc3C2=O)CC1
Second: CN1CCC(CCCC2Cc3ccccc3C2=O)CC1 (centres undefined)
The IC50 of the first is 1.8-fold lower: 0.82 nM for the first, 1.5 nM for the second. The first is the more potent here.

Compared with `CN1CCN(CC2Cc3ccccc3C2=O)CC1` (centres undefined), `CC1CCN(CC2Cc3ccccc3C2=O)CC1` (centres undefined) is 5.1-fold higher in IC50: 94 nM for the first, 480 nM for the second. The first is the more potent here.

First: CN1CCC(=C2Cc3ccccc3C2=O)CC1
Second: CN1CCC(C2Cc3ccccc3C2=O)CC1 (centres undefined)
The IC50 of the first is 2.8-fold lower: 1200 nM for the first, 3300 nM for the second.

First: Cc1ccccc1CN1CCC(C)CC1
Second: CC1CCN(Cc2ccccc2[N+](=O)[O-])CC1
The IC50 of the first is 16-fold lower: 10 nM for the first, 160 nM for the second. The first is the more potent here.

First: CC1CCN(Cc2ccccc2)CC1
Second: CC1CCN(CCc2ccccc2)CC1
The IC50 of the first is 34-fold lower: 5.3 nM for the first, 180 nM for the second.

Going from `CN1CCC(CCC2C(=O)Nc3ccccc3C2=O)CC1` (centres undefined) to `CN1CCC(CCN2C(=O)c3ccccc3C2=O)CC1`, the IC50 falls from 4.2 nM to 0.9 nM (4.7-fold). The second is the more potent here.

Work on `CC1CCN(CC2CCCCC2)CC1` yielded an IC50 of 8.9 nM.
